One may read the Kd as the concentration at which binding is half-saturated. A low value points to a tighter complex.

Structures are written as SMILES.

The source of these data is publication PMC12415202, “Specificities of chemosensory receptors in the human gut microbiota” (Proceedings of the National Academy of Sciences of the …, 2025).

What all share (assay): ITC
A general note: ITC needs no label: the signal is the heat of the interaction.

Test [1] has as its target T1, K1 LBD.
T1 construct: source species and locus only in SI

In test [2] the target is T2, D8 LBD.
T2 construct: D8-dm = residues 33-179, D8-pm = residues 153-280; source species and locus only in SI
The settings on record: membrane-distal module.

The target of test [3] is T3, C1 LBD.
T3 construct: source species and locus only in SI
The source says:
ITC on C1 LBD | The binding of L-lactate to the K1 and C1 LBDs

For test [4], the target named is T4, B9 LBD.
T4 construct: source species and locus only in SI
The source says:
ITC on B9 LBD | The binding of L-threonine to the B9 LBD

For test [5], the target named is T5, J6 LBD.
T5 construct: source species and locus only in SI
The source says: ITC on J6 LBD | ethylamine and methylamine to the J6 LBD was confirmed by ITC

Test [6] has as its target T6, B6 LBD.
T6 construct: locus only in SI
The arrangement: species or system Catenibacterium mitsuokai. An excerpt:
ITC on B6 LBD | the binding of indole to the B6 LBD were confirmed by isothermal titration calorimetry

Regarding `C[C@@H](O)C(=O)O` [D-lactate], in test [1], binding was put at a Kd of 66.1 ± 10.7 µM.

In the case of `C=C(CC(=O)O)C(=O)O` [itaconate], the Kd in test [2] was determined as 9.6 ± 0.9 µM.

For the molecule `C[C@H](O)C(=O)O` [L-lactate], the equilibrium dissociation constant (Kd) in test [3] turned out to be 26.8 ± 0.91 µM; in test [1], 16 ± 0.56 µM.

Consider `O=C(O)/C=C\C(=O)O` [maleate], for which the Kd in test [2] was 7.7 ± 0.41 µM.

For `C[C@@H](O)[C@H](N)C(=O)O` [L-threonine], in test [4], binding was characterised by a dissociation constant (Kd) of 1.3 ± 0.2 µM.

Regarding `CN` [methylamine], the affinity in test [5], expressed as Kd, was 242 ± 22 µM.

Molecule `c1ccc2[nH]ccc2c1` [indole] gave a Kd in test [6] of 35.6 ± 7.02 µM.

`O=C(O)CCC(=O)O` [succinate] registered a Kd in test [2] of 1.7 ± 0.11 µM.
